PubChem BioAssay AID330 (DTP/NCI, 2004)
Values joined by “and” are separate entries in the source; they are usually repeats but may differ in a detail not shown here. Equal entries are not always repeated. Toxic doses and inconclusive results are not listed. How the source made its calls: active means survival T/C of 150% or more; inactive means T/C below 125% in these data.

Tested on: P388 leukemia ip, CD2F1 mice, survival T/C
Test: NCI In Vivo Anticancer Drug Screen. Data for tumor model P388 Leukemia (intraperitoneal) in CD2F1 (CDF1) mice
Settings: endpoint: median survival time, higher = longer survival
Outline: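 Mice carrying the transplanted tumor received test compound or vehicle. Survival was recorded in each group, and the value is the treated-group measurement divided by that of the vehicle-treated control group.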

[1] = dose: 60.0 mg/kg/injection, schedule: Q01DX005 (ip), vehicle: saline
[2] = dose: 120.0 mg/kg/injection, schedule: Q01DX005 (ip), vehicle: saline
[3] = dose: 240.0 mg/kg/injection, schedule: Q01DX005 (ip), vehicle: saline
[4] = dose: 50.0 mg/kg/injection, schedule: Q01DX009 (ip), vehicle: saline with Tween-80
[5] = dose: 100.0 mg/kg/injection, schedule: Q01DX009 (ip), vehicle: saline with Tween-80
[6] = dose: 200.0 mg/kg/injection, schedule: Q01DX009 (ip), vehicle: saline with Tween-80

Measured: T/C

CS(=O)CC(=N\N)/C(CS(C)=O)=N/N (stereo not given)
inactive: [1] 100 % of control | [2] 95 % of control | [3] 102 % of control

Cc1cc(N(CCCl)CCCl)ccc1N=Nc1cccc2ccccc12
inactive: [4] 105 % of control | [5] 115 % of control | [6] 123 % of control

Cc1cc(NCCCNCCCNc2cc(C)nc3cc([N+](=O)[O-])ccc23)c2ccc([N+](=O)[O-])cc2n1
active: dose: 12.5 mg/kg/injection, schedule: Q01DX009 (ip), vehicle: other 150 % of control
inactive: dose: 25.0 mg/kg/injection, schedule: Q01DX009 (ip), vehicle: other 121 % of control

CCCCCC(N)C(C)=O (stereo not given)
inactive: dose: 12.5 mg/kg/injection, schedule: Q01DX009 (ip), vehicle: saline 110 % of control | dose: 25.0 mg/kg/injection, schedule: Q01DX009 (ip), vehicle: saline 106 % of control | [4] 106 % of control and 97 % of control | dose: 50.0 mg/kg/injection, schedule: Q01DX009 (ip), vehicle: saline 105 % of control
active: [6] 187 % of control | dose: 400.0 mg/kg/injection, schedule: Q01DX009 (ip), vehicle: saline with Tween-80 187 % of control

CCCCCCC[CH2][Sn]([CH2]CCCCCCC)([NH]S(=O)(=O)c1ccc(C)cc1)[NH]S(=O)(=O)c1ccc(C)cc1
inactive: dose: 25.0 mg/kg/injection, schedule: Q04DX003 (ip), vehicle: saline sonified 100 % of control | dose: 50.0 mg/kg/injection, schedule: Q04DX003 (ip), vehicle: saline sonified 122 % of control | dose: 100.0 mg/kg/injection, schedule: Q04DX003 (ip), vehicle: saline sonified 100 % of control

NC1=C(Cl)C(=O)C(N)=C(Cl)C1=O
inactive: dose: 25.0 mg/kg/injection, schedule: Q01DX009 (ip), vehicle: saline with Tween-80 113 % of control | dose: 50.0 mg/kg/injection, schedule: Q01DX009 (ip), vehicle: Klucel (hydroxypropylcellulose) (HPC) 100 % of control | [4] 100 % of control | dose: 100.0 mg/kg/injection, schedule: Q01DX009 (ip), vehicle: Klucel (hydroxypropylcellulose) (HPC) 103 % of control | [5] 100 % of control | dose: 200.0 mg/kg/injection, schedule: Q01DX009 (ip), vehicle: Klucel (hydroxypropylcellulose) (HPC) 105 % of control | [6] 94 % of control | dose: 400.0 mg/kg/injection, schedule: Q01DX009 (ip), vehicle: Klucel (hydroxypropylcellulose) (HPC) 99 % of control

O=C(S)c1ccc(Cl)c(Cl)c1
inactive: dose: 50.0 mg/kg/injection, schedule: Q01DX005 (ip), vehicle: saline with Tween-80 90 % of control | dose: 100.0 mg/kg/injection, schedule: Q01DX005 (ip), vehicle: saline with Tween-80 87 % of control | dose: 200.0 mg/kg/injection, schedule: Q01DX005 (ip), vehicle: saline with Tween-80 92 % of control

O=[N+]([O-])c1cc([N+](=O)[O-])c2ccc(S(=O)(=O)O)cc2c1O
inactive: dose: 12.5 mg/kg/injection, schedule: Q04DX002 (ip), vehicle: saline 100 % of control | dose: 15.0 mg/kg/injection, schedule: Q01DX005 (ip), vehicle: saline 105 % of control | dose: 30.0 mg/kg/injection, schedule: Q01DX005 (ip), vehicle: saline 99 % of control | dose: 50.0 mg/kg/injection, schedule: Q04DX002 (ip), vehicle: saline 93 % of control | [1] 100 % of control and 97 % of control | dose: 100.0 mg/kg/injection, schedule: Q01DX001 (ip), vehicle: saline with Tween-80 102 % of control | dose: 100.0 mg/kg/injection, schedule: Q04DX002 (ip), vehicle: saline with Tween-80 98 % of control | dose: 200.0 mg/kg/injection, schedule: Q01DX001 (ip), vehicle: saline with Tween-80 96 % of control

O=C1c2ccc[n+]3c2-c2c1ccc[n+]2CC3
inactive: dose: 12.5 mg/kg/injection, schedule: Q01DX001 (ip), vehicle: saline 108 % of control | dose: 25.0 mg/kg/injection, schedule: Q01DX001 (ip), vehicle: saline 115 % of control | dose: 50.0 mg/kg/injection, schedule: Q01DX001 (ip), vehicle: saline 101 % of control

CC(=O)CCC1C=CC(=O)O1 (stereo not given)
inactive: [1] 112 % of control | [2] 103 % of control | [3] 111 % of control

NC1=NCc2c(sc3c2CCCC3)N1
inactive: dose: 12.5 mg/kg/injection, schedule: Q01DX005 (ip), vehicle: Klucel (hydroxypropylcellulose) (HPC) 104 % of control | dose: 25.0 mg/kg/injection, schedule: Q01DX005 (ip), vehicle: Klucel (hydroxypropylcellulose) (HPC) 104 % of control | dose: 50.0 mg/kg/injection, schedule: Q01DX005 (ip), vehicle: Klucel (hydroxypropylcellulose) (HPC) 98 % of control and 103 % of control
